Structures can show the parent of a compound that is named as a salt.
Key:
LON-1 [1] = target: LON-1 (Caenorhabditis elegans, UniProt Q09566, C207S); assay: biochemical
LON-1 [2] = target: LON-1 (Caenorhabditis elegans, UniProt Q09566, C185Y); assay: biochemical
LON-1 [3] = target: LON-1 (Caenorhabditis elegans, UniProt Q09566, E153A); assay: biochemical
LON-1 [4] = target: LON-1 (Caenorhabditis elegans, UniProt Q09566, V175A); assay: biochemical
LON-1 [5] = target: T1, LON-1 (Caenorhabditis elegans, UniProt Q09566); assay: microscale thermophoresis; type: binding
T1 sequence (Q09566 24-312): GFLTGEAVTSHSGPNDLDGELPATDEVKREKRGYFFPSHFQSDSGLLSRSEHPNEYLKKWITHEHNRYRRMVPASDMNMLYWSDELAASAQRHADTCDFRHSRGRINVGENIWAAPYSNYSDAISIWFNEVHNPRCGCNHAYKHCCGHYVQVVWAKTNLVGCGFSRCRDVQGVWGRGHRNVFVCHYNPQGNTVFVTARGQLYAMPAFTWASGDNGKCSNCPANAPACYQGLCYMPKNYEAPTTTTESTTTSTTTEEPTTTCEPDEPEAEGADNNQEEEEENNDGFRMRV

Chain of LON-1 (Caenorhabditis elegans, UniProt Q09566, E153A) (Q09566 24-312 E153A): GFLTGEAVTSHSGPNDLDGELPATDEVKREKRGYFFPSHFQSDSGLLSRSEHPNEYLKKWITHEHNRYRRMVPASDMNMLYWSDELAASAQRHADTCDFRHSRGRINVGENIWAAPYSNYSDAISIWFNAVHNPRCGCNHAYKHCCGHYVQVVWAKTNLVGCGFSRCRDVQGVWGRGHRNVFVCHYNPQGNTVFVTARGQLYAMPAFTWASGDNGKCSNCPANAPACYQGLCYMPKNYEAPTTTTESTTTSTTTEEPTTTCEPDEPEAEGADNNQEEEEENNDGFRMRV
Chain of LON-1 (Caenorhabditis elegans, UniProt Q09566, C185Y) (Q09566 24-312 C185Y): as the sequence (Q09566 24-312 E153A) above, with A130E, C162Y counted along it
Chain of LON-1 (Caenorhabditis elegans, UniProt Q09566, C207S) (Q09566 24-312 C207S): as the sequence (Q09566 24-312 E153A) above, with A130E, C184S counted along it
Chain of LON-1 (Caenorhabditis elegans, UniProt Q09566, V175A) (Q09566 24-312 V175A): as the sequence (Q09566 24-312 E153A) above, with A130E, V152A counted along it

Structure (SMILES): CC(C)CCC[C@@H](C)[C@H]1CC[C@H]2[C@@H]3CC=C4C[C@@H](OS(=O)(=O)O)CC[C@]4(C)[C@H]3CC[C@]12C [cholesterol sulfate]
- Kd (LON-1 [1]): 332 ± 145 µM
- Kd (LON-1 [2]): 261 ± 92 µM
- Kd (LON-1 [3]): 26 ± 8 µM
- Kd (LON-1 [4]): 76 ± 24 µM
- Kd (LON-1 [5]): ~19 µM

Structure (SMILES): CCCCCCCCCCCCCCCC(=O)O [palmitic acid]
- Kd (LON-1 [5]): ~430 µM
